Results on 35 compounds are retold here after patent US20140323418A1, “SELECTIVE KINASE INHIBITORS” (PORTOLA PHARMACEUTICALS, INC., priority 2011, published 2014).

SMILES strings stand for the structures.

The target of this assay is T1, full length active recombinant SYK enzyme (Homo sapiens, UniProt P43405).
T1 construct: full length active recombinant SYK enzyme (Millipore, Calif.); purchased Millipore
The experiment in a line: Inhibition of Syk tyrosine phosphorylation activity (LANCE TR-FRET kinase assay). The format is biochemical. Conditions: 1 nM SYK, 550 nM substrate, 100 μM ATP, 1 hour room temperature. A general note: TR-FRET usually uses a lanthanide donor and a delayed reading to cut background.

For the compound `Cc1cccc(Nc2nc(N[C@@H](c3ccccc3)C3(N)CC3)ncc2C(N)=O)c1` [Example 148, (5)-2-(1-(1-aminocyclopropyl)(phenyl)methylamino)-4-(m-tolylamino)pyrimidine-5-carboxamide], the half-inhibitory concentration (IC50) (commonly the concentration that inhibits the measured activity by half) lay within 100 to 1000 nM. To `Cn1ncc2c(Nc3nc(N[C@H](C4CC4)C4(N)CC4)ncc3C(N)=O)cccc21` [Example 162, (R)-2-(1-(1-aminocyclopropyl)(cyclopropyl)methylamino)-4-(1-methyl-1H-indazol-4-ylamino)pyrimidine-5-carboxamide] belongs 1 to 10 nM. To `Cc1cccc(Nc2nc(N[C@@H]3CC[C@@H](C(=O)N(C)C)C[C@@H]3N)ncc2C(N)=O)c1` (racemic) [Example 190, 2-((1R,2S,4R)-2-amino-4-(dimethylcarbamoyl)cyclohexylamino)-4-(m-tolylamino)pyrimidine-5-carboxamide] belongs 1 to 10 nM; to `COc1cccc(Nc2ncc(C(N)=O)c(NC3CCC(N)CC3)n2)c1` (stereo in doubt) [Example 247, 4-(trans-4-aminocyclohexylamino)-2-(3-methoxyphenylamino)pyrimidine-5-carboxamide], 10 to 100 nM. As to `Cc1ccc(Nc2nc(N[C@H](C)C3(N)CC3)ncc2C(N)=O)cc1` [Example 146, (R)-2-(1-(1-aminocyclopropyl)ethylamino)-4-(p-tolylamino)pyrimidine-5-carboxamide], the concentration for half-maximal inhibition (IC50) was 10 to 100 nM. Take `CC[C@@H](Nc1ncc(C(N)=O)c(Nc2cccc(-n3cccn3)c2)n1)C1(N)CC1` [Example 132, (R)-4-(3-(1H-pyrazol-1-yl)phenylamino)-2-(1-(1-aminocyclopropyl)propylamino)pyrimidine-5-carboxamide]: the IC50 lay within 1 to 10 nM.

On to `[N-]=[N+]=N[C@H]1CCCC[C@H]1Nc1ncc(C(N)=O)c(Nc2cccc(-n3nccn3)c2)n1` [Example 8, 4-(3-(2H-1,2,3-triazol-2-yl)phenylamino)-2-((1R,2S)-2-azidocyclohexylamino)pyrimidine-5-carboxamide], for which the IC50 lay within 100 to 1000 nM. `CC[C@@H](Nc1ncc(C(N)=O)c(Nc2ccc(C)cc2)n1)C1(N)CC1` [Example 130, (R)-2-(1-(1-aminocyclopropyl)propylamino)-4-(p-tolylamino)pyrimidine-5-carboxamide]: the concentration for half-maximal inhibition (IC50) is 1 to 10 nM.

Take `CNC(=O)[C@@H]1CC[C@@H](Nc2ncc(C(N)=O)c(Nc3cccc(C)c3)n2)[C@@H](N)C1` (racemic) [Example 189, 2-((1R,2S,4R)-2-amino-4-(methylcarbamoyl)cyclohexylamino)-4-(m-tolylamino)pyrimidine-5-carboxamide]: the IC50 is 1 to 10 nM.

Consider `CN(C)c1ncc(C(N)=O)c(Nc2cccc(-n3nccn3)c2)n1` [Example 3, 4-(3-(2H-1,2,3-triazol-2-yl)phenylamino)-2-(dimethylamino)pyrimidine-5-carboxamide], for which the IC50 lay in the range of 100 to 1000 nM.

For `NC(=O)c1cnc(N[C@H](c2ccccc2)C2(N)CC2)nc1Nc1cccc(-c2ncccn2)c1` [Example 150, (R)-2-(1-(1-aminocyclopropyl)(phenyl)methylamino)-4-(3-(pyrimidin-2-yl)phenylamino)pyrimidine-5-carboxamide], the IC50 fell in the range of 10 to 100 nM. To `NC(=O)c1cnc(N[C@H](C2CC2)C2(N)CC2)nc1Nc1ccc(F)cc1` [Example 170, (R)-2-(1-(1-aminocyclopropyl)(cyclopropyl)methylamino)-4-(4-fluorophenylamino)pyrimidine-5-carboxamide] belongs 100 to 1000 nM; to `CC(=O)Oc1cnn(-c2cccc(Nc3nc(N[C@@H]4CCCC[C@@H]4N)ncc3C(N)=O)c2)n1` [Example 253, 2-(3-((2-(((1R,2S)-2-aminocyclohexyl)amino)-5-carbamoylpyrimidin-4-yl)amino)phenyl)-2H-1,2,3-triazol-4-yl acetate], above 1000 nM; to `NC(=O)c1cnc(N[C@@H]2CCOC[C@@H]2N)nc1Nc1cccc(Cl)c1` [Example 50, 2-(((3R,4R)-3-aminotetrahydro-2H-pyran-4-yl)amino)-4-((3-chlorophenyl)amino)pyrimidine-5-carboxamide], 10 to 100 nM. To `NC(=O)c1cnc(N[C@@H]2CCCC[C@@H]2N)nc1Nc1cc(-n2cccn2)cc(-n2cccn2)c1` [Example 249, 2-(((1R,2S)-2-aminocyclohexyl)amino)-4-((3,5-di(1H-pyrazol-1-yl)phenyl)amino)pyrimidine-5-carboxamide] belongs 1 to 10 nM; to `NC(=O)c1cnc(N[C@@H]2CCCC[C@@H]2N)nc1Nc1cnn2ccccc12` [Example 43, 2-(((1R,2S)-2-aminocyclohexyl)amino)-4-(pyrazolo[1,5-a]pyridin-3-ylamino)pyrimidine-5-carboxamide], 1 to 10 nM; to `Cc1cccc(Nc2ncc(C(N)=O)c(NC3CCC(N)CC3)n2)c1` (stereo in doubt) [Example 246, 4-(trans-4-aminocyclohexylamino)-2-(m-tolylamino)pyrimidine-5-carboxamide], 10 to 100 nM. To `C=C1C[C@@H](Nc2ncc(C(N)=O)c(Nc3cccc(-n4nccn4)c3)n2)CN1` [Example 226] belongs 100 to 1000 nM; to `CN1CCc2c(Nc3nc(NC[C@@H](N)CC(F)F)ncc3C(N)=O)cccc21` [Example 98, (S)-2-(2-amino-4,4-difluorobutylamino)-4-(1-methylindolin-4-ylamino)pyrimidine-5-carboxamide], 10 to 100 nM; to `C[C@@H](Nc1ncc(C(N)=O)c(Nc2cccc(-c3ncccn3)c2)n1)C1(N)CC1` [Example 141, (R)-2-(1-(1-aminocyclopropyl)ethylamino)-4-(3-(pyrimidin-2-yl)phenylamino)pyrimidine-5-carboxamide], 1 to 10 nM. Turning to `NC(=O)c1cnc(N[C@@H]2CCNC2)nc1Nc1ccc2ncccc2c1` [Example 214, (R)-2-(pyrrolidin-3-ylamino)-4-(quinolin-6-ylamino)pyrimidine-5-carboxamide], the IC50 lay in the range of 10 to 100 nM. To `NC(=O)c1cnc(N[C@H]2[C@@H](N)CCCC2(F)F)nc1Nc1csc2ncccc12` [Example 36, 2-(((1S,6S)-6-amino-2,2-difluorocyclohexyl)amino)-4-(thieno[2,3-b]pyridin-3-ylamino)pyrimidine-5-carboxamide] belongs 10 to 100 nM; to `CC(C)C[C@@H](Nc1ncc(C(N)=O)c(Nc2cccc(-n3cccn3)c2)n1)C1(N)CC1` [Example 139, (R)-4-(3-(1H-pyrazol-1-yl)phenylamino)-2-(1-(1-aminocyclopropyl)-3-methylbutylamino)pyrimidine-5-carboxamide], 1 to 10 nM; to `NC(=O)c1cnc(N[C@@H]2CCCC(F)(F)[C@@H]2N)nc1Nc1cccc(-c2ncccn2)c1` [Example 26, 2-(((1R,2R)-2-amino-3,3-difluorocyclohexyl)amino)-4-((3-(pyrimidin-2-yl)phenyl)amino)pyrimidine-5-carboxamide], 100 to 1000 nM. To `Cc1cccc(Nc2nc(N[C@H]3CN[C@H](C(=O)N(C)C)C3)ncc2C(N)=O)c1` [Example 219, 2-(((3R,5S)-5-(dimethylcarbamoyl)pyrrolidin-3-yl)amino)-4-(m-tolylamino)pyrimidine-5-carboxamide] belongs above 1000 nM; to `NC(=O)c1cnc(N[C@@H]2CCNC2)nc1Nc1cccc(-n2nccn2)c1` [Example 221, (R)-4-(3-(2H-1,2,3-triazol-2-yl)phenyeamino)-2-(pyrrolidin-3-ylamino)pyrimidine-5-carboxamide], 1 to 10 nM. To `CC(C)[C@@H](Nc1ncc(C(N)=O)c(Nc2ccc3c(ccc[n+]3[O-])c2)n1)C(N)=O` [Example 70, (R)-2-(1-amino-3-methyl-1-oxobutan-2-ylamino)-4-(quinolin-6-ylamino)pyrimidine-5-carboxamide N-oxide] belongs 100 to 1000 nM. With `NC(=O)c1cnc(N[C@H]2CN[C@H](C(=O)O)C2)nc1Nc1cnc2ccccc2c1` [Example 217, (2S,4R)-4-((5-carbamoyl-4-(quinolin-3-ylamino)pyrimidin-2-yl)amino)pyrrolidine-2-carboxylic acid], the IC50 is above 1000 nM. On to `Cn1ccc2c(Nc3nc(N[C@@H]4CCCC(F)(F)[C@@H]4N)ncc3C(N)=O)cccc21` [Example 91, 2-((1R,2R)-2-amino-3,3-difluorocyclohexylamino)-4-(1-methyl-1H-indol-4-ylamino)pyrimidine-5-carboxamide], for which the IC50 was 10 to 100 nM.

Regarding `CC(C)[C@@H](Nc1ncc(C(N)=O)c(Nc2cccc(F)c2)n1)C1(N)CC1` [Example 159, (R)-2-(1-(1-aminocyclopropyl)-2-methylpropylamino)-4-(3-fluorophenylamino)pyrimidine-5-carboxamide], the IC50 is 1 to 10 nM. To `Cc1ccc(Nc2nc(NC[C@H](C)N)ncc2C(N)=O)cc1` [Example 207] belongs 100 to 1000 nM; to `NC(=O)c1cnc(N[C@H](C2CC2)C2(N)CC2)nc1Nc1ccc2scnc2c1` [Example 166, (R)-2-(1-(1-aminocyclopropyl)(cyclopropyl)methylamino)-4-(benzo[d]thiazol-5-ylamino)pyrimidine-5-carboxamide], 10 to 100 nM. For `NC(=O)c1cnc(N[C@@H]2CCOC[C@@H]2N)nc1Nc1cnc2ccccc2c1` [Example 177, 2-((3R,4R)-3-aminotetrahydro-2H-pyran-4-ylamino)-4-(quinolin-3-ylamino)pyrimidine-5-carboxamide], the IC50 lay in the range of 10 to 100 nM. Take `COc1ccc(Nc2ncc(C(N)=O)c(N[C@H]3CC[C@@H](N)CC3)n2)cc1` [Example 185, 4-(4-aminocyclohexylamino)-2-(4-methoxyphenylamino)pyrimidine-5-carboxamide]: the IC50 lay in the range of 10 to 100 nM.

In the case of `NC(=O)c1cnc(N[C@H]2[C@@H](N)CCCC2(F)F)nc1Nc1cnn2ccccc12` [Example 37, 2-(((1S,6S)-6-amino-2,2-difluorocyclohexyl)amino)-4-(pyrazolo[1,5-a]pyridin-3-ylamino)pyrimidine-5-carboxamide], the concentration for half-maximal inhibition (IC50) fell in the range of 10 to 100 nM.
